Laboratory results: patent publication US8119661B2, “Piperidine derivatives and their use as muscarinic receptor modulators” (AstraZeneca AB, priority 2007, dated 2012)
pEC50: −log10 of the molar value.

How the values were obtained:
[1] = molecular target: T1, hM1 (human Muscarinic receptor subtype 1) (Homo sapiens, UniProt P11229); assay: Human M1 calcium mobilization FLIPR assay; type: cell-based; settings: CHO cells expressing hM1, intracellular Ca2+ release
T1 construct: expressed in transfected cells; host or cells: CHO cells (Chinese hamster ovary cells, ATCC)
T1 sequence (P11229 1-460): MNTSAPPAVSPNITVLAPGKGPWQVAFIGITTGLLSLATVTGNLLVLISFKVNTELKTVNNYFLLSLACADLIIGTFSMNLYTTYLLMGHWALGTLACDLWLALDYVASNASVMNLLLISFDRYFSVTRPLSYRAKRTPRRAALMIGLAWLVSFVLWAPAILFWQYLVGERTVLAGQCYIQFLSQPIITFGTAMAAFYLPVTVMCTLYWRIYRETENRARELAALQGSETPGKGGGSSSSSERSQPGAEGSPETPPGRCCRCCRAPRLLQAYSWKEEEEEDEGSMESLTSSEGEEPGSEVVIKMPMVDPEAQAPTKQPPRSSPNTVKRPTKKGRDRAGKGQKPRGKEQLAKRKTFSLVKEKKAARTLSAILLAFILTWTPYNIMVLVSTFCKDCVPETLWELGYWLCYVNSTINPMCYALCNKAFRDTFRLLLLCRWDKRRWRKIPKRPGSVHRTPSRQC
Description: The compound activity in the present invention (EC50 or IC50) is measured using a 384 plate-based imaging assay that monitors drug induced intracellular Ca^2+ release in whole cells. Activation of hM1 (human Muscarinic receptor subtype 1, gene bank access NM_000738), rM1 (rat Muscarinic receptor subtype 1, gene bank access NM_080773), hM3 (human Muscarinic receptor subtype 3, gene bank access NM_000740NM_000740) and hM5 (human Muscarinic receptor subtype 5, gene bank access NM_0121258), receptors expressed in CHO cells (Chinese hamster ovary cells, ATCC) is quantified in a Molecular Devices FLIPR II™ instrument as an increase in fluorescent signal. Inhibition of hM3 and hM5 by compounds is determined by the decrease in fluorescent signal in response to 2 nM acetylcholine activation.
Prior to experiment, the cell culture medium is removed from the plates by inversion. […] Plates are incubated at 37° C. for 60 minutes prior to start the experiment. The incubation is terminated by washing the cells four times in assay buffer, leaving a residual 25 μl buffer per well. Cell plates are then transferred to the FLIPR, ready for compound additions.
The day of experiment, acetylcholine and compounds are diluted in assay buffer in three-fold concentration range (10 points serial dilution) for addition by FLIPR instrument. For all calcium assays, a baseline reading is taken for 10 seconds followed by the addition of 12.5 μl of compounds, resulting in a total well volume of 37.5 μl. Data is collected every second for 60 pictures and then every 6 seconds for 20 pictures prior to the addition of agonist. For hM3 and hM5, before agonist addition, a second baseline reading is taken for 10 seconds followed by the addition of 12.5 μl of agonist or buffer, producing a final volume of 50 μl. After agonist stimulation, the FLIPR continues to collect data every second for 60 pictures and then every 6 seconds for 20 pictures. The fluorescence emission is read using filter 1 (emission 510-570 nm) by the FLIPR on board CCD camera.
Calcium mobilization output data are calculated as the maximal relative fluorescence unit (RFU) minus the minimal value for both compound and agonist reading frame (except for hM1 and rM1 using only the maximal RFU). Data are analyzed using sigmoidal fits of a non-linear curve-fitting program (XLfit version 4.2.2 Excel add-in version 4.2.2 build 18 math 1Q version 2.1.2 build 18). All pEC50 and pIC50 values are reported as arithmetic means±standard error of mean of ‘n’ independent experiments.

[2] = system: SNL rats (heat hyperalgesia); assay: Rat SNL heat hyperalgesia assay; type: in vivo; settings: sc, male Sprague Dawley SNL rats, paw withdrawal latency, morphine s.c. 30 min before testing, example 2 per os 60 min before testing, combination ratio example 2:morphine 1:1.56
Description: Rats undergo spinal nerve ligation surgery as described in Kim and Chung (1992) (reference 1). Briefly, rats are anesthetized with isoflurane, the left L5 and L6 are isolated and tightly ligated with 4-0 silk thread. The wound is closed by suturing and applying tissue adhesive. Compound testing is performed at day 9 to day 36 post-surgery.
For behavioral testing, the animals are acclimatized to the test room environment for a minimum of 30 min. In order to assess the degree of hyperalgesia, the animals are placed on a glass surface (maintained at 30° C.), and a heat-source is focused onto the plantar surface of the left paw. The time from the initiation of the heat until the animal withdraws the paw is recorded. Each animal is tested twice (with an interval of 10 min between the two tests). A decrease in Paw Withdrawal Latency (PWL, average of the two tests) relative to naïve animals indicates a hyperalgesic state. The rats with a PWL of at least 2 seconds less than average PWL of Naïve group are selected for compound testing. […]
In order to assess the degree of heat hyperalgesia, the rats were individually placed in Plexiglas boxes on the glass surface (maintained at 30° C.) of a paw thermal stimulator system (Model 390, series 8, IITC Life Science, Woodland Hills, USA) and allowed to acclimate for 30 min. […] Paw withdrawal latencies (PWLs) were calculated as the mean of the two values.

| Compound | pEC50 [1] | ED50 [2] [µmol/kg] |
| --- | --- | --- |
| CC#CCOC(=O)N1CCC(C)(N2CCC(N3C(=O)N[C@H]4CCCC[C@@H]43)CC2)C1 (single isomer, unassigned) [Example 20] | 6.59 | – |
| CN1CC[C@]23c4c5ccc(O)c4O[C@H]2[C@@H](O)C=C[C@H]3[C@H]1C5 [Morphine, reference compound] | – | 3.8 |
